# Data as given in publication PMC8881610 (Nature Communications, 2022).
# Values joined by “and” are separate entries in the source; they are usually repeats but may differ in a detail not shown here. Identical values can stand only once. Like-named read-outs stand apart in the source and are kept apart here. Where a SMILES comes first, the peptide text is derived from it. [ ]: non-standard residue; d: D form. Aib = CC(C)(N)C(=O)O
# Experiments:
# [1] = target: T1, GIPR (Homo sapiens, UniProt P48546); experiment: Whole-cell binding assay, competition with 125I-GIP1-42; parameters: acylated tirzepatide to the full-length or modified; Flag; expressed in transfected cells
# T1 sequence (P48546 22-466): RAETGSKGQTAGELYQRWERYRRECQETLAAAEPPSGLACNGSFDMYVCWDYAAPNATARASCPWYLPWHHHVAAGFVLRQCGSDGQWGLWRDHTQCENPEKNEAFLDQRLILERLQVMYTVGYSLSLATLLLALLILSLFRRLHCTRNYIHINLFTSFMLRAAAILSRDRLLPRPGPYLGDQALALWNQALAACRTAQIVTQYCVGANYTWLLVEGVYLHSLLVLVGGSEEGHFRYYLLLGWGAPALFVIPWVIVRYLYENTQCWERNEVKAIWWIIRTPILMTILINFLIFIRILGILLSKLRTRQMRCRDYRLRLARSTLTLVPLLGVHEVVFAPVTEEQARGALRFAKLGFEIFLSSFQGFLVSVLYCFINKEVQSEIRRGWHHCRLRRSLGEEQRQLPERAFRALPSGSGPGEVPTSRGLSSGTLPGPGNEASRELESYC
# Experimental: (§1) Human embryonic kidney 293 cells containing SV40 large T-antigen (HEK293T) were cultured in DMEM (Gibco) supplemented with 10% (v/v) fetal bovine serum (FBS, Gibco), 1 mM sodium pyruvate (Gibco) and 100 units/mL penicillin and 100 μg/mL streptomycin at 37 °C in 5% CO2. Chinese hamster ovary (CHO-K1) cells were cultured in F-12 (Gibco) containing 10% FBS, 100 units/mL penicillin and 100 μg/mL streptomycin at 37 °C in 5% CO2. For cAMP and receptor expression assays, HEK293T cells were seeded into 6-well cell culture plates at a density of 7 × 10^5 cells per well. After overnight incubation, cells were transfected with GIPR, GLP-1R or GCGR construct using Lipofectamine 2000 or Lipofectamine 3000 transfection reagent (Invitrogen). For whole-cell binding assay, CHO-K1 cells were seeded into 96-well fibronectin-treated cell culture plates at a density of 3 × 10^4 cells per well. After overnight incubation, cells were transfected with GIPR, GLP-1R or GCGR construct using Lipofectamine 2000 transfection reagent (Invitrogen). Following 24 h culturing, the transfected cells were ready for use.
# For GIPR, CHO-K1 cells were cultured in F-12 medium with 10% FBS and seeded at a density of 30,000 cells/well in Isoplate-96 plates (PerkinElmer). The WT or mutant GIPR was transiently transfected using Lipofectamine 2000 transfection reagent as previous described. They were then washed twice using F-12 with 0.1% BSA or 0.1% casein, 33 mM HEPES, and incubated for 2 h at 37 °C. […] Following incubation, cells were washed three times with ice-cold PBS and lysed by addition of 50 μL lysis buffer (PBS supplemented with 20 mM Tris-HCl, 1% Triton X-100, pH 7.4). Fifty µL of scintillation cocktail (OptiPhase SuperMix, PerkinElmer) were added and the plates were subsequently counted for radioactivity (counts per minute, CPM) in a MicroBeta^2 microplate counter (PerkinElmer).
# [2] = target: T1, GIPR; experiment: cAMP accumulation assay (LANCE Ultra cAMP kit), GIPR WT, mutant or modified constructs; assay type: cell-based; parameters: acylated tirzepatide to the full-length or modified; Flag; expressed in transfected cells; host or cells: HEK293T; details: for EC50 / Emax: HEK293T; for Emax: HEK-293T, read-out: cAMP accumulation Emax
# Experimental: as §1
# A BRIL fusion protein was added at the N-terminal of the ECD with a TEV protease site and 2GSA linker between them. C-terminal 45 amino acids (Q422-C466) of the receptor were truncated. LgBiT was added at the end of helix 8 with a 15-amino acid (15AA) polypeptide linker in between, followed by a TEV protease cleavage site and an OMBP-MBP tag. […] The construct and various mutants of human GIPR were cloned into pcDNA3.1 vector for cAMP accumulation and whole-cell binding assays.
# For GIPR, GLP-1R and GCGR, multi-targeting agonist stimulated cAMP accumulation was measured by a LANCE Ultra cAMP kit (PerkinElmer). After 24 h culture, the transfected cells were seeded into 384-well microtiter plates at a density of 3,000 cells per well in HBSS supplemented with 5 mM HEPES, 0.1% (w/v) BSA or 0.1% (w/v) casein and 0.5 mM 3-isobutyl-1-methylxanthine. The cells were stimulated with different concentrations of peptide agonists for 40 min at RT. Eu-cAMP tracer and ULight^TM-anti-cAMP were then diluted by cAMP detection buffer and added to the plates separately to terminate the reaction. Plates were incubated at RT for 1 h and the fluorescence intensity measured at 620 nm and […] by an EnVision multilabel plate reader (PerkinElmer).
# [3] = target: GCGR (Homo sapiens, UniProt P47871); experiment: Whole-cell binding assay, competition with 125I-GCG; parameters: V5 (C); 6×His (C); expressed in transfected cells; host or cells: CHO-K1; details: for binding Span / binding pIC50: GCGR WT, CHO-K1
# Sequence of GCGR (P47871 26-477): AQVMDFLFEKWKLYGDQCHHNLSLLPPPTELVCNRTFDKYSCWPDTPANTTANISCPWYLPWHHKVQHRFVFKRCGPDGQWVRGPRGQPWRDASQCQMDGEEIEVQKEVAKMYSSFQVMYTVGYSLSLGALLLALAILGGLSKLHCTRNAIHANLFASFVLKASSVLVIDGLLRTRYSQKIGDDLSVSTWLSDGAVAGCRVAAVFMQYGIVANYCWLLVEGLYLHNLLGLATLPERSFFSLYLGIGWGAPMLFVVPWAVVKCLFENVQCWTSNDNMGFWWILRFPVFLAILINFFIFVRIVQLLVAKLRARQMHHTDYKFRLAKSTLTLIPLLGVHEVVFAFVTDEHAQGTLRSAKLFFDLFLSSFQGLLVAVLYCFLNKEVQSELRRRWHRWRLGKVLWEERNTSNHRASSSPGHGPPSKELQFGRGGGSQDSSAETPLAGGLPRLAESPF
# Experimental: as §1
# For GLP-1R and GCGR, CHO-K1 cells (30,000 cells/well) were seeded into Isoplate-96 plates and incubated for 24 h at 37 °C in 5% CO2. The WT or mutant constructs were transiently transfected using Lipofectamine 2000 transfection reagent as previous described. They were then washed twice using F-12 with 0.1% BSA or 0.1% casein, 33 mM HEPES, and incubated for 2 h at 37 °C. […] Cells were washed three times with ice-cold PBS and lysed in PBS with 1% Triton X-100, 20 mM Tris-HCl. After addition of scintillation cocktail (PerkinElmer), radioactivity (CPM) was counted on a MicroBeta^2 microplate counter (PerkinElmer). Data were normalized to the WT response and analyzed using three-parameter logistic equation.
# [4] = GIPR WT, 0.1% casein, CHO-K1, read-out: Binding pIC50 (converted)
# [5] = GIPR, effect of tirzepatide acylation, CHO-K1, read-out: binding pIC50 (converted)
SMILES,"binding Span ([1]; GIPR WT, 0.1% casein, CHO-K1)","IC50 [1, 4] [nM]","binding Span ([1]; GIPR, effect of tirzepatide acylation, CHO-K1)","IC50 [1, 5] [nM]","EC50 ([2]; GIPR WT, 0.1% BSA, read-out: cAMP accumulation pEC50 (converted)) [nM]","IC50 ([1]; Fig. 7c receptor binding profile, n = 3 in duplicate, SEM, read-out: GIPR (pIC50 ± S.E.M.) (converted)) [nM]","binding Span ([1]; GIPR WT, CHO-K1) [% WT]","IC50 ([1]; GIPR WT, CHO-K1, read-out: binding pIC50 (converted))","EC50 ([2]; GIPR WT, read-out: cAMP pEC50 (converted)) [nM]","EC50 ([2]; GIPR, n = 4, SEM, read-out: cAMP pEC50 ± S.E.M. (converted)) [nM]","GCGR (pIC50 ± S.E.M.) ([3]; Fig. 7c receptor binding profile, n = 3 in duplicate)","IC50 ([1]; GIPR WT, 0.1% BSA, CHO-K1, read-out: Binding pIC50 (converted)) [nM]","reduction of cAMP accumulation vs peptide 20 ([2]; GIPR, 0.1% BSA)","EC50 for cAMP accumulation relative to peptide 20 ([2]; GIPR, 0.1% casein) [fold]","Emax ([2]; GIPR WT, 0.1% BSA) [%]","Emax ([2]; GIPR WT, 0.1% casein) [%]",binding Span ([3]; 0.1% BSA),binding pIC50 ([3]; 0.1% BSA),binding Span ([3]; 0.1% casein),binding pIC50 ([3]; 0.1% casein)
CC[C@H](C)[C@H](NC(=O)[C@H](CC(C)C)NC(=O)[C@H](Cc1c[nH]c2ccccc12)NC(=O)[C@H](CCC(N)=O)NC(=O)[C@@H](NC(=O)[C@H](Cc1ccccc1)NC(=O)[C@H](C)NC(=O)[C@H](CCCCN)NC(=O)[C@H](CCC(N)=O)NC(=O)[C@H](C)NC(=O)[C@@H](NC(=O)[C@H](CCCCN)NC(=O)[C@H](CC(=O)O)NC(=O)[C@H](CC(C)C)NC(=O)C(C)(C)NC(=O)[C@@H](NC(=O)[C@H](CO)NC(=O)[C@H](Cc1ccc(O)cc1)NC(=O)[C@H](CC(=O)O)NC(=O)[C@H](CO)NC(=O)[C@@H](NC(=O)[C@H](Cc1ccccc1)NC(=O)[C@@H](NC(=O)CNC(=O)[C@H](CCC(=O)O)NC(=O)C(C)(C)NC(=O)[C@@H](N)Cc1ccc(O)cc1)[C@@H](C)O)[C@@H](C)O)[C@@H](C)CC)[C@@H](C)CC)C(C)C)C(=O)N[C@@H](C)C(=O)NCC(=O)NCC(=O)N1CCC[C@H]1C(=O)N[C@@H](CO)C(=O)N[C@@H](CO)C(=O)NCC(=O)N[C@@H](C)C(=O)N1CCC[C@H]1C(=O)N1CCC[C@H]1C(=O)N1CCC[C@H]1C(=O)N[C@@H](CO)C(N)=O [Non-acylated tirzepatide],88.80 ± 5.25,3.39,90.71 ± 3.70 % WT or Tirzepatide,12.6,0.00182,–,–,–,–,–,–,–,–,–,–,–,–,–,–,–
CC[C@H](C)[C@H](NC(=O)[C@H](CC(C)C)NC(=O)[C@H](Cc1c[nH]c2ccccc12)NC(=O)[C@H](CCC(N)=O)NC(=O)[C@@H](NC(=O)[C@H](Cc1ccccc1)NC(=O)[C@H](C)NC(=O)[C@H](CCCCNC(=O)COCCOCCNC(=O)COCCOCCNC(=O)CC[C@H](NC(=O)CCCCCCCCCCCCCCCCCCC(=O)O)C(=O)O)NC(=O)[C@H](CCC(N)=O)NC(=O)[C@H](C)NC(=O)[C@@H](NC(=O)[C@H](CCCCN)NC(=O)[C@H](CC(=O)O)NC(=O)[C@H](CC(C)C)NC(=O)C(C)(C)NC(=O)[C@@H](NC(=O)[C@H](CO)NC(=O)[C@H](Cc1ccc(O)cc1)NC(=O)[C@H](CC(=O)O)NC(=O)[C@H](CO)NC(=O)[C@@H](NC(=O)[C@H](Cc1ccccc1)NC(=O)[C@@H](NC(=O)CNC(=O)[C@H](CCC(=O)O)NC(=O)C(C)(C)NC(=O)[C@@H](N)Cc1ccc(O)cc1)[C@@H](C)O)[C@@H](C)O)[C@@H](C)CC)[C@@H](C)CC)C(C)C)C(=O)N[C@@H](C)C(=O)NCC(=O)NCC(=O)N1CCC[C@H]1C(=O)N[C@@H](CO)C(=O)N[C@@H](CO)C(=O)NCC(=O)N[C@@H](C)C(=O)N1CCC[C@H]1C(=O)N1CCC[C@H]1C(=O)N1CCC[C@H]1C(=O)N[C@@H](CO)C(N)=O [Tirzepatide],92.95 ± 3.97,3.16,–,105,–,31.6,102.92 ± 6.94,89.1 nM and 97.7 nM,0.0288,0.0126,N.B.,–,–,–,–,–,–,–,–,–
CC(C)C[C@H](NC(=O)[C@H](CC(C)C)NC(=O)[C@H](Cc1c[nH]c2ccccc12)NC(=O)[C@H](CCC(N)=O)NC(=O)[C@@H](NC(=O)[C@H](Cc1ccccc1)NC(=O)[C@H](CC(=O)O)NC(=O)[C@H](CCC(N)=O)NC(=O)[C@H](C)NC(=O)[C@H](C)NC(=O)[C@H](CCCNC(=N)N)NC(=O)[C@H](CCC(=O)O)NC(=O)[C@H](CC(=O)O)NC(=O)[C@H](CC(C)C)NC(=O)[C@H](Cc1ccc(O)cc1)NC(=O)[C@H](CCCCN)NC(=O)[C@H](CO)NC(=O)[C@H](CCCCN)NC(=O)[C@H](CC(=O)O)NC(=O)[C@H](CO)NC(=O)[C@@H](NC(=O)[C@H](Cc1ccccc1)NC(=O)[C@@H](NC(=O)CNC(=O)[C@H](CCC(N)=O)NC(=O)C(C)(C)NC(=O)[C@@H](N)Cc1c[nH]cn1)[C@@H](C)O)[C@@H](C)O)C(C)C)C(=O)N[C@@H](CC(=O)O)C(=O)NCC(=O)NCC(=O)N1CCC[C@H]1C(=O)N[C@@H](CO)C(=O)N[C@@H](CO)C(=O)NCC(=O)N[C@@H](C)C(=O)N1CCC[C@H]1C(=O)N1CCC[C@H]1C(=O)N1CCC[C@H]1C(=O)N[C@@H](CO)C(N)=O [Non-lipidated peptide 20] (H-H[Aib]QGTFTSDKSKYLDERAAQDFVQWLLDGGPSSGAPPPS-NH2; N-terminus and C-terminus assumed),–,170,–,–,–,–,–,–,–,–,–,51.3,"1,288 fold",−871,99.4 ± 6.44,88.5 ± 6.52,N.B.,N.B.,N.B.,N.B.
